Laboratory results reported in patent US9404082B2, “Method for production of eosinophil from pluripotent stem cell” (KYOTO UNIVERSITY, priority 2010, dated 2016).

Tested on: ES cell (H1)-derived eosinophils
Assay: Measurement of migratory capacity (Transwell)
Type: cell-based, human
Settings: 1640 medium with 5% FBS, 1 to 2 hours, IL-5 0.2-25 ng/ml, Eotaxin 0.4-250 nM, fMLP 10 pM-100 nM, FIG. 3
Method: Eosinophils established from ES cells (H1) by the above method were transferred to Transwell, and 1640 medium supplemented with 5% FBS was added thereto. IL-5 (0.2 ng/ml to 25 ng/ml), Eotaxin (0.4 nM to 250 nM) and fMLP (10 pM to 100 nM) at various concentrations were added thereto, and culture was performed for 1 to 2 hours. Thereafter, the number of cells migrated from the top layer to the bottom layer was measured (FIG. 3).

IL-5: cytokine used to stimulate eosinophil migration
number of cells migrated from the top layer to the bottom layer: migrate in response to the respective types of stimulation

fMLP
number of cells migrated from the top layer to the bottom layer: migrate in response to the respective types of stimulation

Eotaxin: cytokine used to stimulate eosinophil migration
number of cells migrated from the top layer to the bottom layer: migrate in response to the respective types of stimulation
